Key:
V. cholerae WN1102 = experiment: Bioluminescence response of V. cholerae WN1102 (in vitro bioactivity assay); assay type: cell-based; details: suggested by bioactivity of the flow through
From the text: FIG. 10(a) illustrates bioluminescence response of V. cholerae WN1102 supplemented with varying amounts of CAI-1-loaded Zein/CAS/VitE-Ac composite nanoparticles in PBS according to some embodiments described herein.
The bioactivity of blank Zein/CAS/VitEA particles was not detectable (FIG. 10b). […] The flow-through after centrifugal filtration can be regarded as a correlate for encapsulation efficiency of CAI-1. Bioactivity of the flow through was observed only at very high concentrations, approximately 1,000-10,000-fold higher than CAI-1 NPs.

V. cholera cultures = experiment: Growth of V. cholera cultures at 37° C.; assay type: cell-based; details: during the time tested
Protocol: FIG. 10(b) illustrates growth of V. cholera cultures at 37° C. in response to addition of CAI-1-loaded Zein/CAS/VitE-Ac nanoparticles according to some embodiments described herein.
Changes in size and PDI could only be observed for the three-fold protein per amount of drug formulation (FIG. 9a). […] All parts of the formulation were necessary for the formation of nanoparticles with defined size. […] FNP of CAI-1 alone yielded a polydisperse emulsion, which then agglomerated and settled out over time.

[1] = cited from earlier work; for Log D: pH 7.4
[2] = Nanoparticle solution stability (milliQ H2O, PBS pH7.4, LB50, 2% bile salts, pH2.0) by DLS; assay type: physicochemical; details: 10% wt. Nile Red loading
Protocol: Using a Zetasizer® Nano-ZS (Malvern instruments, Malvern, UK), dynamic light scattering (DLS) size measurements were performed on samples directly after FNP. Samples were diluted with ultra-pure water to avoid multiple scattering and analyzed at 25° C. using a detection angle of 173°. The reported size is the intensity-weighted average diameter as reported by the Malvern deconvolution software in Normal Mode analysis.
Initially, nanoparticle formulations were screened for stability at physiologic conditions (PBS) and conditions relevant to the in vitro model of V. cholera.
Various zein-to-casein ratios were produced to further investigate formulation stability in physiological environments relevant to oral delivery. Zein to casein ratios 4:1, 2:1, and 1:1 FIG. 17 in PBS, pH2.0, LB50 and 2% bile salts were investigated.

[3] = Nile Red encapsulation efficiency by UV-Vis of flow through after centrifugal filtration; assay type: physicochemical; details: in Zn/CAS-VitE-Ac NPs, all stable formulations (0.2%-5 wt.%)
From the text: The utility of an encapsulation method depends on its encapsulation capacity and efficiency for various compounds. […] Nile Red was encapsulated at 0.2%-5 wt. %. At 0.1% wt. […] Encapsulation efficiency of Nile Red in Zn/CAS-VitE-Ac NPs was >98% for all stable formulations as determined by UV-Vis measurement of the flow through after centrifugal filtration (FIG. 7). With increasing Nile Red concentration in the core, the mean nanoparticle diameter increases (FIG. 6b). The florescence intensity is expected to increase with higher dye loading per particle. This can be seen in FIGS. 6(c) and 6(d) for two different wavelengths (500 nm excitation, 690 nm emission) and core loadings of 0.2-1% wt.

| Compound | Log D [1] | log P [1] | other results |
| --- | --- | --- | --- |
| CCCCCCCCCC(=O)[C@@H](O)CC [CAI-1] | 4.30 | – | Encapsulation efficiency of CAI-1 during FNP (V. cholerae WN1102): > 98%; Effect on the growth of cells (V. cholera cultures): no apparent effect |
| NC(=O)CC[C@@H]1NC(=O)[C@H](Cc2ccccc2)NC(=O)[C@H](Cc2ccc(O)cc2)NC(=O)CCSSC[C@@H](C(=O)N2CCC[C@H]2C(=O)N[C@H](CCCN=C(N)N)C(=O)NCC(N)=O)NC(=O)[C@H](CC(N)=O)NC1=O [Desmopressin] | -7.34 | – | – |
| Nc1ccc(O)c(C(=O)O)c1 [Mesalazine] | -1.98 | 0.46 | – |
| CN(C)c1ccc(/N=N/c2ccccc2C(=O)O)cc1 [Methyl Red] | 1.46 | – | – |
| CCN(CC)c1ccc2nc3c4ccccc4c(=O)cc-3oc2c1 [Nile Red] | 4.46 | – | NP behaviour after FNP at high dye loading [2]: immediate aggregation of NPs; Encapsulation efficiency of Nile Red [3]: > 98% |
| c1cc2ccc3cccc4ccc(c1)c2c34 [Pyrene] | 4.92 | 5.17 | – |

— patent US12083230B2, “Nano-encapsulation using GRAS materials and applications thereof” (priority 2015, dated 2024)
